Experiments:
Format in all cases: cell-based
[1] = biological target: T1, Protein cereblon/Interleukin-1 receptor-associated kinase 4 (Homo sapiens) (UniProt Q9NWZ3+Q96SW2); experiment: Protac activity at IRAK4 in human OCl-LY10 cells assessed as increase in E3 ubiquitin ligase mediated IRAK4 degradation at 0.01 uM incubated for 4 hrs by Western blot analysis relative to control
[2] = biological target: T1, Protein cereblon/Interleukin-1 receptor-associated kinase 4 (Homo sapiens); experiment: Protac activity at IRAK4 in human OCl-LY10 cells assessed as increase in E3 ubiquitin ligase mediated IRAK4 degradation at 0.1 uM incubated for 4 hrs by Western blot analysis relative to control
[3] = biological target: T1, Protein cereblon/Interleukin-1 receptor-associated kinase 4 (Homo sapiens); experiment: Protac activity at IRAK4 in human OCl-LY10 cells assessed as increase in E3 ubiquitin ligase mediated IRAK4 degradation at 1 uM incubated for 4 hrs by Western blot analysis relative to control

T1 sequence (Q96SW2 whole entry, looked up): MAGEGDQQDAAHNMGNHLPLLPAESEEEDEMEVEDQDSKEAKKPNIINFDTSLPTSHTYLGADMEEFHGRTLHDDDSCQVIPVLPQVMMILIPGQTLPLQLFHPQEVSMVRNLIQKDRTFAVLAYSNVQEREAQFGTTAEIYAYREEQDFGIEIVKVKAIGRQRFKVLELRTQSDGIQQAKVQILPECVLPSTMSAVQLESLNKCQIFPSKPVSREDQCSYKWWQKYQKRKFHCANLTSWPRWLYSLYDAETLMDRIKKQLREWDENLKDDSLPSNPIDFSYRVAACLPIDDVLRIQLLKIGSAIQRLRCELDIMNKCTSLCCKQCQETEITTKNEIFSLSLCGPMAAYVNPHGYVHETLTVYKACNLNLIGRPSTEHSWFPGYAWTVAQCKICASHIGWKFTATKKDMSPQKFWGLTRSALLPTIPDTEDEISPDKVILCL
T1 sequence (Q9NWZ3 whole entry, looked up): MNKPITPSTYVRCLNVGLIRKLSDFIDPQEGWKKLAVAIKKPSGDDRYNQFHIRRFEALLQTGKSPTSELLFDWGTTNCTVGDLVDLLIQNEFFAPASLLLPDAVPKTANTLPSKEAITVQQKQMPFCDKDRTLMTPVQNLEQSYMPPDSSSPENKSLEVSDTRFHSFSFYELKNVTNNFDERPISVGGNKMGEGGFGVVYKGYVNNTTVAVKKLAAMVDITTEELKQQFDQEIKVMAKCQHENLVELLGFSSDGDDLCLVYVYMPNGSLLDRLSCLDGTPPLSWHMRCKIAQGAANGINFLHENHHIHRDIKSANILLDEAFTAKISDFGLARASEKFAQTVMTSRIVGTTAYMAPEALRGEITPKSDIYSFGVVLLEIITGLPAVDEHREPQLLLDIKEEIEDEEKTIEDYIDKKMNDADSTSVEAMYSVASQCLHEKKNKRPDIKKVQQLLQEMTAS

Compound	Activity [1] [%]	Activity [2] [%]	Activity [3] [%]
O=C1CCC(N2C(=O)c3cccc(NC4CCN(CCOCCOCCNC(=O)c5ccc(-n6cc(NC(=O)c7coc(-c8ccnc(NCC(F)(F)F)c8)n7)c(C(F)F)n6)cc5)CC4)c3C2=O)C(=O)N1 (stereo not given)	> 50	> 50	> 50
NCc1nn(-c2ccc(C(=O)NCCOCCOCCNc3cccc4c3C(=O)N(C3CCC(=O)NC3=O)C4=O)cc2)cc1NC(=O)c1coc(-c2ccnc(NCC(F)(F)F)c2)n1 (stereo not given)	> 50	> 50	> 50
O=C1CCC(n2c(=O)oc3c(CCCOCCOCCNC(=O)c4ccc(-n5cc(NC(=O)c6coc(-c7ccnc(NCC8CC8)c7)n6)c(C(F)F)n5)cc4)cccc32)C(=O)N1 (stereo not given)	> 20	> 50	> 50
O=C1CCC(N2C(=O)c3cccc(NCCNCCOCCNC(=O)c4ccc(-n5cc(NC(=O)c6coc(-c7ccnc(NCC8CC8)c7)n6)c(C(F)(F)F)n5)cc4)c3C2=O)C(=O)N1 (stereo not given)	> 50	> 50	> 50
CN(CCOCCOCCCc1ccc2c(c1)C(=O)N(C1CCC(=O)NC1=O)C2=O)C(=O)c1ccc(-n2cc(NC(=O)c3coc(-c4ccnc(NCC5CC5)c4)n3)c(C(N)=O)n2)cc1 (stereo not given)	> 50	> 50	> 50
CN(CCOCCCc1cccc2c1C(=O)N(C1CCC(=O)NC1=O)C2=O)Cc1ccc(-n2cc(NC(=O)c3coc(-c4ccnc(NCC5CC5)c4)n3)c(C(N)=O)n2)cc1 (stereo not given)	> 20	> 50	> 50

Next, values leading:

Activity [1] [%]	Activity [2] [%]	Activity [3] [%]	Compound
> 50	> 50	> 50	NC(=O)c1nn(-c2ccc(C(=O)NCC3CCCCN3CCOCCNc3cccc4c3C(=O)N(C3CCC(=O)NC3=O)C4=O)cc2)cc1NC(=O)c1coc(-c2ccnc(NCC(F)(F)F)c2)n1 (stereo not given)
> 20	> 50	> 50	CN(CCOCCOCCCc1ccc2c(c1)C(=O)N(C1CCC(=O)NC1=O)C2=O)Cc1ccc(-n2cc(NC(=O)c3coc(-c4ccncc4)n3)c(C(N)=O)n2)cc1 (stereo not given)
> 20	> 50	> 50	CN(CCOCCOCCCc1ccc2c(c1)C(=O)N(C1CCC(=O)NC1=O)C2=O)Cc1ccc(-n2cc(NC(=O)c3coc(-c4ccnc(NCC5CC5)c4)n3)c(C(N)=O)n2)cc1 (stereo not given)
> 50	> 50	> 50	NC(=O)c1nn(-c2ccc(CNCC3CN(CCOCCNc4cccc5c4C(=O)N(C4CCC(=O)NC4=O)C5=O)CCO3)cc2)cc1NC(=O)c1coc(-c2ccnc(NCC(F)(F)F)c2)n1 (stereo not given)

Reference: ChEMBL document CHEMBL4304829, “PROTAC Degradation of IRAK4 for the Treatment of Cancer” (ACS Med Chem Lett, 2019)
